Like-named read-outs stand apart in the source and are kept apart here.
Target: TNFα (Homo sapiens, UniProt P01375)
Experiment: HEK-Blue hTNFα reporter assay
Type: cell-based
Design: purchased R&D biosystem (R&D Systems) 210-TA-020/CF
Settings: HEK-Blue hTNFα reporter cells; for Emax: read-out: TNFα reporter, Emax
How it was run: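 Compounds preincubated 1 h at 37 °C with recombinant hTNFα ([…]), then added to HEK293 NF-κB-SEAP reporter cells, 10000 cells/well, 24 h at 37 °C. SEAP read by QUANTI-Blue at OD620; % inhibition versus stimulated and unstimulated controls, IC50 by 4-parameter fit.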

[1] = SEAP readout, read-out: IC50 Range

TNFα, sequence (P01375 77-233 limits assumed): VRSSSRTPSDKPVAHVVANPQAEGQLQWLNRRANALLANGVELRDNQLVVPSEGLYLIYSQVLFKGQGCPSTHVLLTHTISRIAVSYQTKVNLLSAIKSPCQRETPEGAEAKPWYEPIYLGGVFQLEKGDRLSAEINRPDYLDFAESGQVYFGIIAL

| Structure (SMILES) | IC50 [1] [nM] | also measured |
| --- | --- | --- |
| CN1C(=O)c2cccc(OC(F)F)c2[C@H]2C[C@@H]1c1nc3ccc(-c4cnc([C@]5(O)C[C@@](C)(O)C5)nc4)cc3n12 [Comp. Ex #6, reference compound] | – | Emax: 82%; IC50 (read-out: TNFα reporter, IC50): 5.2 nM |
| [2H]C([2H])([2H])N1C(=O)c2cccc(OC(F)F)c2[C@H]2C[C@@H]1c1nn3cc(F)c(-c4cnc([C@]5(N)C[C@](C)(C#N)C5)nc4)cc3c12 [Example 244] | < 25 | – |
| C[C@](O)(CC#N)c1ncc(-c2ccn3nc4c(c3c2)[C@@H]2C[C@H]4NC(=O)c3cccc(OC(F)F)c32)cn1 [Example 164] | < 25 | – |
| CN1C(=O)c2cccc(OC(F)F)c2[C@H]2C[C@@H]1c1nn3cnc(-c4cnc([C@]5(N)C[C@@](C)(O)C5)nc4)cc3c12 [Example 46] | < 25 | – |
| [2H]C([2H])([2H])N1C(=O)c2cccc(OC(F)F)c2[C@H]2C[C@@H]1c1nn3ccc(-c4cnc(C5(O)COC5)nc4)cc3c12 [Example 153] | < 25 | – |
| [2H]C([2H])([2H])N1C(=O)c2cccc(OC(F)F)c2[C@H]2C[C@@H]1c1nn3ccc(-c4cnc([C@]5(N)C[C@@](C)(C#N)C5)nc4)nc3c12 [Example 56] | < 25 | – |
| [2H]C([2H])([2H])N1C(=O)c2cccc(OC(F)F)c2[C@H]2C[C@@H]1c1nn3ccc(-c4cnc([C@]5(O)C[C@@](C)(C#N)C5)c(F)c4)nc3c12 [Example 249] | < 25 | – |
| CN1C(=O)c2cccc(OC(F)F)c2[C@H]2C[C@@H]1c1nn3ccc(-c4cnc(OCP(C)(C)=O)nc4)cc3c12 [Example 67] | < 25 | – |
| [2H]C([2H])([2H])N1C(=O)c2ccc(F)c(OC(F)F)c2[C@H]2C[C@@H]1c1nn3ccc(-c4cnc(C5(N)CCC5)nc4)nc3c12 [Example 282] | < 25 | – |
| C[C@@](O)(CC#N)c1ncc(-c2cc3c4c(nn3cc2F)[C@H]2C[C@@H]4c3c(OC(F)F)cccc3C(=O)N2)cn1 [Example 191] | < 25 | – |
| [2H]C([2H])([2H])N1C(=O)c2cccc(OC(F)F)c2[C@H]2C[C@@H]1c1nn3ccc(-c4cnc([C@]5(C#N)C[C@@](C)(N)C5)nc4)nc3c12 [Example 232] | 100 to 1000 | – |
| CN1C(=O)c2cccc(OC3CC3)c2[C@H]2C[C@@H]1c1nn3ccc(-c4cnc([C@]5(O)C[C@@](C)(O)C5)nc4)cc3c12 [Example 37] | < 25 | – |
| Cc1nc([C@]2(O)C[C@@](C)(O)C2)ncc1-c1ccn2nc3c(c2c1)[C@@H]1C[C@H]3N(C)C(=O)c2cccc(OC(F)F)c21 [Example 147] | < 25 | – |
| [2H]C([2H])([2H])N1C(=O)c2cccc(OC(F)F)c2[C@H]2C[C@@H]1c1nn3ccc(-c4cnc([C@]5(N)C[C@@](C)(C#N)C5)nc4C)nc3c12 [Example 230] | < 25 | – |
| [2H]C([2H])([2H])N1C(=O)c2cccc(OC(F)F)c2[C@H]2C[C@@H]1c1nn3ccc(-c4cnc([C@]5(O)C[C@@](C)(N)C5)c(F)c4)cc3c12 [Example 246] | < 25 | – |
| [2H]C([2H])([2H])N1C(=O)c2cccc(OC(F)F)c2[C@H]2C[C@@H]1c1nn3ccc(-c4ccc(C5(N)CCC5)nc4)nc3c12 [Example 182] | < 25 | – |
| [2H]C([2H])([2H])N1C(=O)c2cccc(OC(F)F)c2[C@H]2C[C@@H]1c1nn3ccc(-c4cnc(C5(N)CC5)nc4)nc3c12 [Example 238] | < 25 | – |
| CN1C(=O)c2cccc(OC(F)F)c2[C@H]2C[C@@H]1c1nn3ccc(-c4ncc([C@H](O)[C@@H]5CCO5)cn4)cc3c12 [Example 131] | < 25 | – |
| [2H]C([2H])([2H])N1C(=O)c2cccc(OC(F)F)c2[C@H]2C[C@@H]1c1nn3ccc(-c4cnc([C@]5(O)C[C@@](C)(N)C5)cn4)cc3c12 [Example 253] | < 25 | – |

| Structure (SMILES) | IC50 [1] [nM] | also measured |
| --- | --- | --- |
| [2H]C([2H])([2H])N1C(=O)c2cccc(OC(F)F)c2[C@H]2C[C@@H]1c1nn3ccc(-c4cnc([C@]5(N)C[C@@](C)(O)C5)nc4C)nc3c12 [Example 285] | < 25 | – |
| CN1C(=O)c2cccc(OC(F)F)c2[C@H]2C[C@@H]1c1nn3ccc(-c4ccc(P(C)(C)=O)cn4)cc3c12 [Example 122] | < 25 | – |
| [2H]C([2H])([2H])N1C(=O)c2cccc(OC(F)F)c2[C@H]2C[C@@H]1c1nn3ccc(-c4cnc([C@]5(N)C[C@@H](O)C5)nc4)cc3c12 [Example 187] | < 25 | – |
| CN1C(=O)c2cccc(OC(F)F)c2[C@H]2C[C@@H]1c1nn3ccc(-c4cnc([C@](C)(O)CC#N)nc4)cc3c12 [Example 75] | < 25 | – |
| CN1C(=O)c2cccc(OC(F)F)c2[C@H]2C[C@@H]1c1nc3ccc(-c4cnc([C@]5(N)C[C@@](C)(O)C5)c(F)c4)cc3n12 [Comp. Ex #2, reference compound] | – | Emax: 85%; IC50 (read-out: TNFα reporter, IC50): 4.7 nM |
| CN1C(=O)c2cccc(OC(F)F)c2[C@H]2C[C@@H]1c1nn3ccc(-c4ccc(P(C)(C)=O)cc4)cc3c12 [Example 123] | < 25 | – |
| [2H]C([2H])([2H])N1C(=O)c2cccc(OC(F)F)c2[C@H]2C[C@@H]1c1nn3cnc(-c4cnc(C5(N)CC5)nc4)cc3c12 [Example 245] | < 25 | – |
| [2H]C([2H])([2H])N1C(=O)c2cccc(OC(F)F)c2[C@H]2C[C@@H]1c1nn3ccc(-c4cnc([C@]5(N)C[C@@](C)(O)C5)nc4C)cc3c12 [Example 281] | < 25 | – |
| CN1C(=O)c2cccc(OC(F)F)c2[C@H]2C[C@@H]1c1nn3cnc(-c4cnc(C5(N)CCC5)nc4)cc3c12 [Example 48] | < 25 | – |
| [2H]C([2H])([2H])N1C(=O)c2cccc(OC(F)F)c2[C@H]2C[C@@H]1c1nn3cc(C)c(-c4cnc([C@]5(N)C[C@@](C)(C#N)C5)nc4)cc3c12 [Example 259] | < 25 | – |
| CN1C(=O)c2cccc(OC(F)F)c2[C@H]2C[C@@H]1c1nn3ccc(-c4cnc([C@@](C)(O)C(F)F)nc4)cc3c12 [Example 73] | < 25 | – |
| [2H]C([2H])([2H])N1C(=O)c2cccc(OC(F)F)c2[C@H]2C[C@@H]1c1nn3ccc(-c4cnc([C@H](N)C5CC5)nc4)cc3c12 [Example 257] | < 25 | – |
| [2H]C([2H])([2H])N1C(=O)c2cccc(OC(F)F)c2[C@H]2C[C@@H]1c1nn3ccc(-c4cnc(C5(O)CN(C)C5)nc4)cc3c12 [Example 278] | < 25 | – |
| C[C@H](O)[C@H](O)c1ncc(-c2ccn3nc4c(c3c2)[C@@H]2C[C@H]4N(C)C(=O)c3cccc(OC(F)F)c32)cn1 [Example 135] | < 25 | – |
| [2H]C([2H])([2H])N1C(=O)c2cccc(OC(F)F)c2[C@H]2C[C@@H]1c1nn3cc(F)c(-c4cnc(C5(N)CC(F)(F)C5)nc4)nc3c12 [Example 228] | < 25 | – |
| CN1C(=O)c2cccc(OC(F)F)c2[C@H]2C[C@@H]1c1nn3ccc(-c4ncc(P(C)(C)=O)cn4)cc3c12 [Example 138] | < 25 | – |
| [2H]C([2H])([2H])N1C(=O)c2cccc(OC(F)F)c2[C@H]2C[C@@H]1c1nn3ccc(-c4cnc([C@]5(C#N)C[C@@](C)(N)C5)nc4)cc3c12 [Example 279] | < 25 | – |
| CN1C(=O)c2cccc(OC(F)F)c2[C@H]2C[C@@H]1c1nn3ccc(-c4cnc([C@@H](O)C5COC5)nc4)cc3c12 [Example 136] | < 25 | – |
| CN1C(=O)c2cccc(OC(F)F)c2[C@H]2C[C@@H]1c1nn3ccc(-c4cnc(C5(O)CCC5)nc4)cc3c12 [Example 71] | < 25 | – |

Continued, in another order:

| IC50 [1] [nM] | Structure (SMILES) | also measured |
| --- | --- | --- |
| < 25 | [2H]C([2H])([2H])N1C(=O)c2cccc(C#N)c2[C@H]2C[C@@H]1c1nn3ccc(-c4cnc(C5(N)CCC5)nc4)cc3c12 [Example 306] | – |
| < 25 | CN1C(=O)c2cccc(OC(F)F)c2[C@H]2C[C@@H]1c1nn3cc(F)c(-c4cnc([C@]5(O)C[C@@](C)(O)C5)nc4)nc3c12 [Example 26] | – |
| < 25 | CN1C(=O)c2cccc(OC(F)F)c2[C@H]2C[C@@H]1c1nn3cc(F)c(-c4cnc([C@](C)(O)CC#N)nc4)cc3c12 [Example 117] | – |
| < 25 | O=C1N[C@@H]2C[C@H](c3c(OC(F)F)cccc31)c1c2nn2ccc(-c3cnc(N4CCOCC4)nc3)cc12 [Example 162] | – |
| < 25 | [2H]C([2H])([2H])N1C(=O)c2cccc(OC(F)F)c2[C@H]2C[C@@H]1c1nn3cc(F)c(-c4cnc([C@]5(N)C[C@@](C)(O)C5)nc4)cc3c12 [Example 267] | – |
| < 25 | CN1C(=O)c2cccc(OC(F)F)c2[C@H]2C[C@@H]1c1nn3ccc(-c4cnc([C@](C)(O)C5COC5)nc4)cc3c12 [Example 86] | – |
| < 25 | [2H]C([2H])([2H])N1C(=O)c2cccc(OC(F)F)c2[C@H]2C[C@@H]1c1nn3ccc(-c4cnc([C@]5(C#N)C[C@](C)(N)C5)c(F)c4)cc3c12 [Example 293] | – |
| < 25 | C[C@]1(O)C[C@](N)(c2ncc(-c3ccn4nc5c(c4c3)[C@@H]3C[C@H]5NC(=O)c4cccc(OC(F)F)c43)cn2)C1 [Example 197] | – |
| < 25 | O=C1N[C@@H]2C[C@H](c3c(OC(F)F)cccc31)c1c2nn2ccc(-c3ccnc(OC4COC4)c3)cc12 [Example 202] | – |
| < 25 | CN1C(=O)c2cccc(OC(F)F)c2[C@H]2C[C@@H]1c1nn3ccc(-c4cnc(C5(O)CC(F)(F)C5)nc4)cc3c12 [Example 66] | – |
| < 25 | CN1C(=O)c2cccc(OC(F)F)c2[C@H]2C[C@@H]1c1nn3ccc(-c4cnc(C5(O)CCC(F)(F)CC5)nc4)cc3c12 [Example 72] | – |
| 25 to 100 | [2H]C([2H])([2H])N1C(=O)c2cccc(OC(F)F)c2[C@H]2C[C@@H]1c1nn3cc(F)c(-c4cnc([C@]5(N)C[C@@H](O)C5)nc4)nc3c12 [Example 205] | – |
| 100 to 1000 | [2H]C([2H])([2H])N1C(=O)c2cccc(OC(F)F)c2[C@H]2C[C@@H]1c1nn3ccc(-c4cnc([C@]5(O)C[C@@](C)(N)C5)nc4)nc3c12 [Example 180] | – |
| < 25 | [2H]C([2H])([2H])N1C(=O)c2cccc(OC(F)F)c2[C@H]2C[C@@H]1c1nn3ccc(-c4cnc(C(C)(C)N)nc4)nc3c12 [Example 286] | – |
| < 25 | [2H]C([2H])([2H])N1C(=O)c2cccc(OC(F)F)c2[C@H]2C[C@@H]1c1nn3cc(F)c(-c4cnc(C5(N)CCC5)cn4)cc3c12 [Example 199] | – |
